Results from the supplement of paper PMC10627819.

Assays:
[1] = test system: B. subtilis 168; experiment: fitness (endpoint OD595 vs no drug) (fraction); higher = more growth
How it was run: (§1)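 Cultures at OD595 0.01 were dispensed into 384-well plates in TSB, LB Lennox or CY and incubated at 37 °C. Every 30 min for 14 h, OD595 was read and corrected by the first reading. Fitness is the optical density at entry into stationary phase relative to the robust mean of no-drug control wells, capped at 1.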

[2] = test system: S. aureus DSM 20231; experiment: as above
How it was run: as §1

[3] = test system: S. aureus Newman; experiment: as above
How it was run: as §1

[4] = test system: S. pneumoniae D39V; experiment: as above
How it was run: as §1

[5] = test system: B. subtilis 168; experiment: Bliss interaction score (quartile over a dose matrix) (fitness difference); higher = more antagonism (negative = synergy)
How it was run: (§2)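 The Bliss score is observed minus expected fitness under the product model, reported as quartiles over technical, biological and donor/recipient replicates. Fitness is the OD595 at entry into stationary phase divided by the plate's robust no-drug mean and capped at 1. Single-drug fitness was inferred from combination data.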

[6] = test system: S. aureus DSM 20231; experiment: as above
How it was run: as §2

[7] = test system: S. aureus Newman; experiment: as above
How it was run: as §2

[8] = test system: S. pneumoniae D39V; experiment: as above
How it was run: as §2
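For Bliss interaction score (quartile over a dose matrix) in this document: first quartile when negative (synergy) and third quartile when positive (antagonism).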

CO/N=C(\C(=O)N[C@@H]1C(=O)N2C(C(=O)O)=C(COC(C)=O)CS[C@H]12)c1csc(N)n1 [Cefotaxime] + CC1=C\[C@@H](O)CC(=O)Cc2nc(co2)C(=O)N2CCC=C2C(=O)O[C@H](C(C)C)[C@H](C)/C=C/C(=O)NC\C=C\1 [Virginiamycin M1]
one replicate
Conditions | fitness
[1], first compound 0.00775 µg/mL, partner 0.0625 µg/mL | 0.854
[1], first compound 0.00775 µg/mL, partner 0.125 µg/mL | 0.833
[1], first compound 0.00775 µg/mL, partner 0.25 µg/mL | 0.833
[1], first compound 0.0155 µg/mL, partner 0.0625 µg/mL | 0.695
[1], first compound 0.0155 µg/mL, partner 0.125 µg/mL | 0.683
[1], first compound 0.0155 µg/mL, partner 0.25 µg/mL | 0.673
[1], first compound 0.031 µg/mL, partner 0.0625 µg/mL | 0.554
[1], first compound 0.031 µg/mL, partner 0.125 µg/mL | 0.557
[1], first compound 0.031 µg/mL, partner 0.25 µg/mL | 0.583
[2], first compound 0.039 µg/mL, partner 0.0625 µg/mL | 0.775
[2], first compound 0.039 µg/mL, partner 0.125 µg/mL | 0.779
[2], first compound 0.039 µg/mL, partner 0.25 µg/mL | 0.762
[2], first compound 0.078 µg/mL, partner 0.5 µg/mL | 0.778
[2], first compound 0.078 µg/mL, partner 1 µg/mL | 0.799
[2], first compound 0.156 µg/mL, partner 0.5 µg/mL | 0.742
[2], first compound 0.156 µg/mL, partner 1 µg/mL | 0.699
[2], first compound 0.312 µg/mL, partner 0.5 µg/mL | 0.61
[2], first compound 0.312 µg/mL, partner 1 µg/mL | 0.706
[3], first compound 0.039 µg/mL, partner 0.5 µg/mL | 0.71
[3], first compound 0.039 µg/mL, partner 1 µg/mL | 0.72
[3], first compound 0.039 µg/mL, partner 2 µg/mL | 0.732
[3], first compound 0.078 µg/mL, partner 0.0625 µg/mL | 0.699
[3], first compound 0.078 µg/mL, partner 0.125 µg/mL | 0.716
[3], first compound 0.078 µg/mL, partner 0.25 µg/mL | 0.734
[3], first compound 0.078 µg/mL, partner 0.5 µg/mL | 0.672
[3], first compound 0.078 µg/mL, partner 1 µg/mL | 0.687
[3], first compound 0.078 µg/mL, partner 2 µg/mL | 0.57
[3], first compound 0.156 µg/mL, partner 0.0625 µg/mL | 0.494
[3], first compound 0.156 µg/mL, partner 0.125 µg/mL | 0.468
[3], first compound 0.156 µg/mL, partner 0.25 µg/mL | 0.509
[3], first compound 0.156 µg/mL, partner 0.5 µg/mL | 0.648
[3], first compound 0.156 µg/mL, partner 1 µg/mL | 0.613
[3], first compound 0.156 µg/mL, partner 2 µg/mL | 0.444
[3], first compound 0.312 µg/mL, partner 0.0625 µg/mL | 0.305
[3], first compound 0.312 µg/mL, partner 0.125 µg/mL | 0.326
[3], first compound 0.312 µg/mL, partner 0.25 µg/mL | 0.307
[3], first compound 0.312 µg/mL, partner 0.5 µg/mL | 0.57
[3], first compound 0.312 µg/mL, partner 1 µg/mL | 0.54
[3], first compound 0.312 µg/mL, partner 2 µg/mL | 0.344
[3], first compound 0.625 µg/mL, partner 0.0625 µg/mL | 0.0023
[3], first compound 0.625 µg/mL, partner 0.125 µg/mL | 0.0438
[3], first compound 0.625 µg/mL, partner 0.25 µg/mL | 0.039
[3], first compound 1.25 µg/mL, partner 0.0625 µg/mL | 0.0272
[3], first compound 1.25 µg/mL, partner 0.125 µg/mL | 0.0702
[3], first compound 1.25 µg/mL, partner 0.25 µg/mL | 0.0726
[3], first compound 2.5 µg/mL, partner 0.0625 µg/mL | 0.0428
[3], first compound 2.5 µg/mL, partner 0.125 µg/mL | 0.0329
[3], first compound 2.5 µg/mL, partner 0.25 µg/mL | 0.0641
[4], first compound 0.0018 µg/mL, partner 0.15 µg/mL | ≥ 1
[4], first compound 0.0018 µg/mL, partner 0.3 µg/mL | 0.976
[4], first compound 0.0035 µg/mL, partner 0.15 µg/mL | ≥ 1
[4], first compound 0.0035 µg/mL, partner 0.3 µg/mL | ≥ 1
[4], first compound 0.007 µg/mL, partner 0.15 µg/mL | ≥ 1
[4], first compound 0.007 µg/mL, partner 0.3 µg/mL | 0.952

fitness
Conditions | partner 0.0625 µg/mL | partner 0.125 µg/mL | partner 0.25 µg/mL | partner 0.5 µg/mL | partner 1 µg/mL | partner 2 µg/mL
[1], first compound 0.5 µg/mL | 0.23 | 0.246 | 0.239 | – | – | –
[1], first compound 1 µg/mL | 0.085 | 0.0947 | 0.119 | – | – | –
[1], first compound 2 µg/mL | 0.0507 | 0.082 | 0.0814 | – | – | –
[2], first compound 0.078 µg/mL | 0.678 | 0.784 | 0.776 | – | – | –
[2], first compound 0.156 µg/mL | 0.711 | 0.83 | 0.741 | – | – | –
[2], first compound 0.312 µg/mL | 0.683 | 0.694 | 0.676 | – | – | –
[4], first compound 0.0018 µg/mL | – | – | – | 0.991 | 1 | 0.947
[4], first compound 0.0035 µg/mL | – | – | – | 0.975 | 0.95 | 0.966
[4], first compound 0.007 µg/mL | – | – | – | 0.916 | 0.957 | 0.917

Conditions | Bliss interaction score
[5] | 0.0729
[6] | 0.0452
[7] | -0.0479
[8] | -0.0315

CO/N=C(\C(=O)N[C@@H]1C(=O)N2C(C(=O)O)=C(COC(C)=O)CS[C@H]12)c1csc(N)n1 [Cefotaxime] + CC(C1CCC(C(O1)OC2C(CC(C(C2O)OC3C(C(C(CO3)(C)O)NC)O)N)N)N)NC [Gentamicin]
one replicate, main component drawn
Conditions | fitness
[1], first compound 0.00775 µg/mL, partner 0.0625 µg/mL | 0.66
[1], first compound 0.00775 µg/mL, partner 0.125 µg/mL | 0.0541
[1], first compound 0.00775 µg/mL, partner 0.25 µg/mL | 0.0723
[1], first compound 0.0155 µg/mL, partner 0.0625 µg/mL | 0.16
[1], first compound 0.0155 µg/mL, partner 0.125 µg/mL | 0.0431
[1], first compound 0.0155 µg/mL, partner 0.25 µg/mL | 0.0419
[1], first compound 0.031 µg/mL, partner 0.0625 µg/mL | 0.0439
[1], first compound 0.031 µg/mL, partner 0.125 µg/mL | 0.0439
[1], first compound 0.031 µg/mL, partner 0.25 µg/mL | 0.0452
[1], first compound 0.0625 µg/mL, partner 0.0625 µg/mL | 0.754
[1], first compound 0.0625 µg/mL, partner 0.125 µg/mL | 0.701
[1], first compound 0.0625 µg/mL, partner 0.25 µg/mL | 0.155
[1], first compound 0.125 µg/mL, partner 0.0625 µg/mL | 0.65
[1], first compound 0.125 µg/mL, partner 0.125 µg/mL | 0.449
[1], first compound 0.125 µg/mL, partner 0.25 µg/mL | 0.103
[1], first compound 0.25 µg/mL, partner 0.0625 µg/mL | 0.581
[1], first compound 0.25 µg/mL, partner 0.125 µg/mL | 0.22
[1], first compound 0.25 µg/mL, partner 0.25 µg/mL | 0.129
[3], first compound 0.039 µg/mL, partner 0.5 µg/mL | 0.79
[3], first compound 0.039 µg/mL, partner 1 µg/mL | 0.857
[3], first compound 0.039 µg/mL, partner 2 µg/mL | 0.951
[3], first compound 0.078 µg/mL, partner 0.375 µg/mL | 0.757
[3], first compound 0.078 µg/mL, partner 0.5 µg/mL | 0.821
[3], first compound 0.078 µg/mL, partner 0.75 µg/mL | 0.772
[3], first compound 0.078 µg/mL, partner 1 µg/mL | 0.8
[3], first compound 0.078 µg/mL, partner 1.5 µg/mL | 0.759
[3], first compound 0.078 µg/mL, partner 2 µg/mL | 0.977
[3], first compound 0.156 µg/mL, partner 0.375 µg/mL | 0.52
[3], first compound 0.156 µg/mL, partner 0.5 µg/mL | 0.744
[3], first compound 0.156 µg/mL, partner 0.75 µg/mL | 0.533
[3], first compound 0.156 µg/mL, partner 1 µg/mL | 0.763
[3], first compound 0.156 µg/mL, partner 1.5 µg/mL | 0.595
[3], first compound 0.156 µg/mL, partner 2 µg/mL | 0.872
[3], first compound 0.312 µg/mL, partner 0.375 µg/mL | 0.345
[3], first compound 0.312 µg/mL, partner 0.75 µg/mL | 0.389
[3], first compound 0.312 µg/mL, partner 1.5 µg/mL | 0.399
[3], first compound 0.625 µg/mL, partner 0.375 µg/mL | 0.0576
[3], first compound 0.625 µg/mL, partner 0.75 µg/mL | 0.0523
[3], first compound 0.625 µg/mL, partner 1.5 µg/mL | 0.0345
[3], first compound 1.25 µg/mL, partner 0.375 µg/mL | 0.0504
[3], first compound 1.25 µg/mL, partner 0.75 µg/mL | 0.0617
[3], first compound 1.25 µg/mL, partner 1.5 µg/mL | 0.0569
[3], first compound 2.5 µg/mL, partner 0.375 µg/mL | 0.0422
[3], first compound 2.5 µg/mL, partner 0.75 µg/mL | 0.074
[3], first compound 2.5 µg/mL, partner 1.5 µg/mL | 0.0764

main component drawn
Conditions | fitness
[1], first compound 0.5 µg/mL, partner 0.0625 µg/mL | 0.155
[1], first compound 0.5 µg/mL, partner 0.125 µg/mL | 0.055
[1], first compound 0.5 µg/mL, partner 0.25 µg/mL | 0.0842
[1], first compound 1 µg/mL, partner 0.0625 µg/mL | 0.0509
[1], first compound 1 µg/mL, partner 0.125 µg/mL | 0.04
[1], first compound 1 µg/mL, partner 0.25 µg/mL | 0.0527
[1], first compound 2 µg/mL, partner 0.0625 µg/mL | 0.0909
[1], first compound 2 µg/mL, partner 0.125 µg/mL | 0.0759
[1], first compound 2 µg/mL, partner 0.25 µg/mL | 0.0872
[3], first compound 0.625 µg/mL, partner 0.5 µg/mL | 0.389
[3], first compound 0.625 µg/mL, partner 1 µg/mL | 0.44
[3], first compound 0.625 µg/mL, partner 2 µg/mL | 0.397
[3], first compound 1.25 µg/mL, partner 0.5 µg/mL | 0.0594
[3], first compound 1.25 µg/mL, partner 1 µg/mL | 0.0679
[3], first compound 1.25 µg/mL, partner 2 µg/mL | 0.0372
[3], first compound 2.5 µg/mL, partner 0.5 µg/mL | 0.0199
[3], first compound 2.5 µg/mL, partner 1 µg/mL | 0.0366
[3], first compound 2.5 µg/mL, partner 2 µg/mL | 0.0507
[4], first compound 0.0018 µg/mL, partner 2 µg/mL | 0.999
[4], first compound 0.0018 µg/mL, partner 4 µg/mL | 0.988
[4], first compound 0.0018 µg/mL, partner 8 µg/mL | 0.971
[4], first compound 0.0035 µg/mL, partner 2 µg/mL | 0.967
[4], first compound 0.0035 µg/mL, partner 4 µg/mL | 0.956
[4], first compound 0.0035 µg/mL, partner 8 µg/mL | 0.917
[4], first compound 0.007 µg/mL, partner 2 µg/mL | 0.895
[4], first compound 0.007 µg/mL, partner 4 µg/mL | 0.896
[4], first compound 0.007 µg/mL, partner 8 µg/mL | 0.867

main component drawn
Conditions | Bliss interaction score
[5] | -0.0898
[6] | 0.0541
[7] | 0.0788
[8] | 0.0656
